Measurements taken from patent US9463186B2, “Treatment for dopaminergic disorders” (Northwestern University, priority 2013, dated 2016).
“Also recorded” adds a separate entry of the source.

Tests used:
[1] = tested on: L-type calcium channels (Cav1.3) of SNc dopaminergic neurons; assay: Whole cell patch clamp recordings of dopaminergic neurons in brain slices (Example 2); assay type: cell-based, mouse; details: for inhibition of L-type calcium channels: dihydropyridine antagonists, brain slice, FIG. 1 and FIG. 4
[2] = tested on: SNc DA neurons; assay: Mito-roGFP imaging of mitochondrial oxidant stress after chronic drug treatment by s.c. osmotic minipumps; assay type: in vivo, mice; details: for dose dependence of the effect of chronic administration on mitochondrial oxidant stress: 1 week via s.c. osmotic minipump, isradipine 0.03, 0.3, 3 mg/kg/day, rasagiline 1 and 3 mg/kg/day, FIG. 8; for mitochondrial oxidant stress in SNc dopaminergic neurons, chronic treatment: chronic (1 week) s.c. osmotic minipumps, FIG. 7d
[3] = tested on: SNc dopaminergic neurons; details: brain slice taken following rasagiline treatment; FIG. 6
[4] = tested on: SNc dopaminergic neurons; details: Fluo4 and 2PLSM; FIG. 6
[5] = tested on: SNc DA neurons; details: acute treatment at the time of measurement; FIG. 7c-d

| Structure (SMILES) | inhibition of L-type calcium channels [1] | dose dependence of the effect of chronic administration on mitochondrial oxidant stress [2] | mitochondrial oxidant stress in SNc dopaminergic neurons, chronic treatment [2] | also measured |
| --- | --- | --- | --- | --- |
| COC(=O)C1=C(C)NC(C)=C(C(=O)OC(C)C)C1c1cccc2nonc12 (stereo not drawn) [isradipine, 3,5-pyridinedicarboxylic acid, 4-(4-benzofurazanyl)-1,4-dihydro-2,6-dimethyl-, methyl 1-methylethyl ester] | inhibited | dose-dependent | diminished | pacemaking during sustained blockade of Cav1.3 channels ([1]; adult SNc dopaminergic neuron, before, during and after application, FIG. 4): restores pacemaking and dopaminergic neuron cell function through an altered pacemaking mechanism |
| COCCOC(=O)C1=C(C)NC(C)=C(C(=O)OC(C)C)C1c1cccc([N+](=O)[O-])c1 (stereo not drawn) [nimodipine, isopropyl 2-methoxyethyl 1,4-dihydro-2,6-dimethyl-4-(m-nitrophenyl)-3,5-pyridinedicarboxylate] | inhibited |  |  | autonomous pacemaking of dopaminergic neurons ([1]; tissue slice from an adult, FIGS. 1a-d): inhibits autonomous pacemaking |
| C#CCN[C@@H]1CCc2ccccc21 [rasagiline] |  | dose-dependent | diminished; also recorded: further lowers stress | pacemaking of SNc dopaminergic neurons [3]: no effect on pacemaking; calcium entry linked to pacemaking (intracellular calcium oscillations) [4]: no effect; mitochondrial oxidant stress in SNc dopaminergic neurons, acute treatment [5]: lowers mitochondrial oxidant stress |
| NC1=N[C@H](O)[C@H]2[C@H]3O[C@]4(O)O[C@@H]([C@@H](O)[C@@]2(N1)[C@@H]4O)[C@]3(O)CO [tetrodotoxin] |  |  |  | spikes and underlying oscillations that drive pacemaking [1]: eliminates spikes but not the underlying oscillations |
